# According to EPA's ToxRefDB 2:
# Key:
# [1] = test system: rat; settings: Carcinogenicity; fischer; Oral; Gavage/Intubation; dose end: 105 week; group: systemic; systemic / in life observation / body weight / body weight + systemic / pathology gross / liver / discolored + systemic / pathology gross / …
# [2] = test system: rat; settings: Subchronic oral toxicity in rodents, fischer, Gavage/Intubation, dose end: 14 week, group: systemic, systemic / in life observation / body weight / body weight + systemic / in life observation / body weight / body weight gain + systemic / …
# [3] = test system: mouse; settings: Carcinogenicity; b6c3f1; Oral; Gavage/Intubation; dose end: 105 week; group: systemic; systemic / in life observation / body weight / body weight + systemic / pathology microscopic / liver / hematopoietic cell proliferation + …
# [4] = test system: mouse; settings: Subchronic oral toxicity in rodents, b6c3f1, Gavage/Intubation, dose end: 14 week, group: systemic
# [5] = test system: hamster; settings: Subchronic oral toxicity in rodents, golden syrian, Feed, dose end: 13 week, group: systemic
# [6] = test system: hamster; settings: Carcinogenicity, golden syrian, Oral, Feed, dose end: 91 week, group: systemic
# [7] = test system: rat; settings: Multigenerational reproductive toxicity study, sprague dawley, Oral, Feed, dose end: 2 generation
# [8] = test system: rat; settings: Subchronic oral toxicity in rodents, other, [Not Specified], dose end: 90 day, group: systemic
# [9] = test system: hamster; settings: Carcinogenicity; golden syrian; Oral; Feed; dose end: 88 week; group: systemic; systemic / pathology microscopic / pancreas / hyperplasia + systemic / pathology microscopic / prostate / secretory fluid + systemic / …
# [10] = test system: rat; settings: Combined chronic toxicity/carcinogenicity; fischer; Oral; Feed; dose end: 110 week; group: systemic; systemic / clinical chemistry / cholesterol / cholesterol + systemic / clinical chemistry / creatinine / creatinine + systemic / clinical …
# [11] = test system: dog; settings: Chronic toxicity, beagle, Oral, Feed, dose end: 24 month, group: systemic
# [12] = test system: rabbit; settings: Prenatal developmental toxicity study, new zealand white, Oral, Gavage/Intubation, dose end: 19 GD
# [13] = systemic / in life observation / body weight / body weight gain + systemic / organ weight / liver / absolute + systemic / organ weight / …
# [14] = systemic / organ weight / epididymis / nos + systemic / organ weight / testes / nos
# [15] = systemic / clinical chemistry / lipids / phospholipids + systemic / organ weight / liver / nos + systemic / organ weight / prostate / nos + …
# [16] = systemic / clinical chemistry / lipids / phospholipids + systemic / organ weight / liver / nos + systemic / pathology microscopic / …
# [17] = systemic / in life observation / body weight / body weight gain
# [18] = systemic / in life observation / body weight / body weight gain + systemic / organ weight / heart / nos
# [19] = group: offspring, systemic / in life observation / body weight / offspring (pup) weight
# [20] = group: parental, systemic / in life observation / body weight / body weight + systemic / in life observation / body weight / body weight gain + systemic / in…
# [21] = group: reproductive, reproductive / reproductive performance / implantations / implantations
# [22] = systemic / organ weight / liver / nos
# [23] = systemic / organ weight / liver / nos + systemic / hematology / leukocyte (wbc) count differential / leukocyte (wbc) + systemic / hematology…
# [24] = systemic / clinical chemistry / [other] / [other] + systemic / clinical chemistry / alanine aminotransferase (alt/sgpt) / alanine …
# [25] = group: developmental, developmental / developmental malformation / aortic arch / dilated + developmental / developmental malformation / aortic arch / narrowed + …
# [26] = group: maternal, reproductive / reproductive performance / postimplantation loss / postimplantation loss + reproductive / reproductive performance / …
compound,measurement,setting,value
C=CCc1ccc(OC)c(OC)c1 [Methyleugenol],LEL,[1],37 mg/kg/day
same,LOAEL,[1],75 mg/kg/day
same,NEL,[1],< 37 mg/kg/day
same,NOAEL,[1],37 mg/kg/day
same,LEL,[2],10 mg/kg/day
same,LOAEL,[2],300 mg/kg/day
same,NEL,[2],< 10 mg/kg/day
same,NOAEL,[2],100 mg/kg/day
same,LEL,[3],37 mg/kg/day
same,LOAEL,[3],37 mg/kg/day
same,NEL,[3],< 37 mg/kg/day
same,NOAEL,[3],< 37 mg/kg/day
same,LOAEL,[4]; [13],300 mg/kg/day
same,NOAEL,[4]; [13],100 mg/kg/day
same,LEL,[4]; [14],10 mg/kg/day
same,NEL,[4]; [14],< 10 mg/kg/day
N#Cc1c(Cl)cccc1Cl [Dichlobenil],LEL,[5]; [15],18.8 mg/kg/day
same,LOAEL,[5]; [15],18.8 mg/kg/day
same,NEL,[5]; [16],3.75 mg/kg/day
same,NOAEL,[5]; [16],3.75 mg/kg/day
same,LOAEL,[6]; [17],51 mg/kg/day
same,NOAEL,[6]; [17],< 51 mg/kg/day
same,LEL,[6]; [18],51 mg/kg/day
same,NEL,[6]; [18],< 51 mg/kg/day
same,LEL,[7]; [19],15 mg/kg/day
same,LOAEL,[7]; [19],15 mg/kg/day
same,NEL,[7]; [19],3 mg/kg/day
same,NOAEL,[7]; [19],3 mg/kg/day
same,LEL,[7]; [20],100 mg/kg/day
same,LOAEL,[7]; [20],100 mg/kg/day
same,NEL,[7]; [20],15 mg/kg/day
same,NOAEL,[7]; [20],15 mg/kg/day
same,LEL,[7]; [21],100 mg/kg/day
same,LOAEL,[7]; [21],> 100 mg/kg/day
same,NEL,[7]; [21],15 mg/kg/day
same,NOAEL,[7]; [21],≥ 100 mg/kg/day
same,LEL,[8]; [22],50 mg/kg/day
same,LOAEL,[8]; [22],50 mg/kg/day
same,NEL,[8]; [23],5 mg/kg/day
same,NOAEL,[8]; [23],5 mg/kg/day
same,LEL,[9],45.6 mg/kg/day
same,LOAEL,[9],45.6 mg/kg/day
same,NEL,[9],9.39 mg/kg/day
same,NOAEL,[9],9.39 mg/kg/day
same,LEL,[10],17.3 mg/kg/day
same,LOAEL,[10],17.3 mg/kg/day
same,NEL,[10],2.1 mg/kg/day
same,NOAEL,[10],2.1 mg/kg/day
same,LOAEL,[11]; [24],8.75 mg/kg/day
same,NEL,[11]; [24],0.5 mg/kg/day
same,NOAEL,[11]; [24],1.25 mg/kg/day
same,LEL,[11]; systemic / urinalysis / occult blood / blood,1.25 mg/kg/day
same,LEL,[12]; [25],135 mg/kg/day
same,LOAEL,[12]; [25],135 mg/kg/day
same,NEL,[12]; [25],45 mg/kg/day
same,NOAEL,[12]; [25],45 mg/kg/day
same,LEL,[12]; [26],135 mg/kg/day
same,LOAEL,[12]; [26],135 mg/kg/day
same,NEL,[12]; [26],45 mg/kg/day
same,NOAEL,[12]; [26],45 mg/kg/day
